We go through one molecule from patent publication US9745334B2, “Cytotoxic-drug delivering molecules targeting HIV (CDM-Hs), cytotoxic activity against the human immunodeficiency virus and methods of use” (YALE UNIVERSITY, priority 2012, dated 2017).

Data set [1] relates to CHO-env (gp120+) cells. Nature of the data set: Cell cytotoxicity assay (CellTiter Glo), CHO-env. The class given is cell-based. As to conditions: 14 h; at 310 nM and 1.85 μM. Here is the method:
(§1) Wild-type HIV-1 env expressing CHO-env cells and CHO-pSv (env negative isogenic control) were a gift from Dr. Edward Berger (NIH), however, they were developed by Nicholas and coworkers.^55 CHO-pSv cells were grown in DMEM base media described below while CHO-env cells were grown in selection medium, which consists of base medium containing 0.25 μM methotrexate (MTX, Aldrich). *Note: Decrease in envelope expression in CHO-env cells was observed upon several passages and it is recommended to maintain low passage stocks of cells in liquid nitrogen.
(§2) Cell Cytotoxicity Assay (CellTiter Glo)
(§3) ***Note: all incubations and dilutions in CHO-culture media (+MTX for CHO-env)
(§4) ***All incubations performed in 96-well plates (clear bottom, black sides; Costar#3603) in triplicate at 37° C., 5% CO2 in moist environment.
(§5) Confluent (˜80%) T-75 flasks of CHO-env and/or CHO-pSv were washed once with DPBS (3 mL), detached, counted and then centrifuged. […]
(§6) Serial dilutions (1/6) of molecules made in empty 96-well plates using multichannel pipette, and then transferred to plates containing seeded cells (50 μL). […] Luminescence monitored on Biotek Synergy 2 microplate reader.
(§7) % cytotoxicity above background calculated by the following formulas: % CDC=[100−((sample−max kill)/(no molecule−max kill))*100] […]
(In general: In ATP-based viability assays light output follows the ATP content of the culture.)

The subject of data set [2] is CHO-pSV (gp120−) cells. Nature of the data set: Cell cytotoxicity assay (CellTiter Glo), CHO-pSV. Conditions: 14 h incubation; concentrations as high as 67 μM. The format is cell-based. Here is the method:
as §1, §2, §3, §4, §5, §6, §7

For `COc1cccc2c1C(=O)c1c(O)c3c(c(O)c1C2=O)C[C@@](O)(C(=O)CO)C[C@@H]3O[C@H]1C[C@H](N)[C@H](O)[C@H](C)O1` [doxorubicin], the “toxicity at low concentrations” value in data set [1] was “no toxicity was observed”. Besides, in data set [2], the non-specific cytotoxicity result is on record as “non-specifically toxic”.
